The values that follow come from ChEMBL document CHEMBL6096674, “Design, Synthesis, and Anticancer Activity of Drug-like Iron Chelators/G-Quadruplex Binders as Synergic Dual Targeting Agents” (J Med Chem, 2025).

Structures are written as SMILES. Calls of active or inactive are those of the source. The calls are words filed in the database; no cut-off is given here.

The test system of data set [1] is Quadruplex DNA. As to the kind of experiment: Stabilization of Parallel c-Kit1 G4-quadruplex DNA (5'-AGGGAGGGCGCTGGGAGGAGGG-3') (unknown origin) assessed as change in melting temperature at 5 equiv. by CD melting based analysis. The class given is nucleic-acid assay.
Data set [2] concerns Quadruplex DNA. As to the kind of experiment: Stabilization of human Hybrid Tel23 G4-quadruplex DNA (5'-TAGGGTTAGGGTTAGGGTTAGGG-3') assessed as change in melting temperature at 5 equiv. by CD melting based analysis. In kind it is nucleic-acid assay.
Data set [3] deals with Hairpin duplex DNA. Put plainly: Stabilization of Hairpin duplex DNA (5'-CGCGAATTCGCGTTTCGCGAATTCGCG-3') (unknown origin) assessed as change in melting temperature at 5 equiv. by CD melting based analysis. In kind it is nucleic-acid assay.
In data set [4] the test system is Quadruplex DNA. Put plainly: Stabilization of Parallel c-Kit2 G4-quadruplex DNA (5'-CGGGCGGGCGCTAGGGAGGGT-3') (unknown origin) assessed as change in melting temperature at 5 equiv. by CD melting based analysis. In kind it is nucleic-acid assay.
In data set [5] the test system is Quadruplex DNA. Put plainly: Stabilization of Hybrid Bcl2 G4-quadruplex DNA (5'-AGGGCGCGGGAGGAAGGGGGCGGGA-3') (unknown origin) assessed as change in melting temperature at 5 equiv. by CD melting based analysis. The class given is nucleic-acid assay.
Data set [6] concerns Quadruplex DNA. As to the kind of experiment: Stabilization of Parallel c-Myc G4-quadruplex DNA (5'-TGAGGGTGGGTAGGGTGGGTAA-3') (unknown origin) assessed as change in melting temperature at 5 equiv. by CD melting based analysis. In kind it is nucleic-acid assay.
Data set [7] can be described thus: Cytotoxicity against human HaCaT cells assessed as decrease in cell survival incubated for 48 hrs by MTT assay. The class given is toxicity, cell-based. (Tetrazolium dyes change colour on reduction, which living cells bring about.)
A short description of data set [8]: Metal chelating activity assessed as free Fe2+ chelation by measuring decrease in cellular LIP content at IC50 measured after 48 hrs by red fluorescent probe based fluorescence microscopy.
Data set [9] relates to MCF7. Put plainly: Antiproliferative activity against human MCF7 cells assessed as decrease in cell survival incubated for 48 hrs by MTT assay. In kind it is functional, cell-based. Conditions: MCF7, 48 h.
In data set [10] the test system is Jurkat. Put plainly: Antiproliferative activity against human Jurkat cells assessed as decrease in cell survival incubated for 48 hrs by MTT assay. In kind it is functional, cell-based.
Data set [11] deals with HCT-116. Put plainly: Antiproliferative activity against human HCT-116 cells assessed as decrease in cell survival incubated for 48 hrs by MTT assay. Conditions: HCT-116, 48 h. The class given is functional, cell-based.
Data set [12] relates to Jurkat. As to the kind of experiment: Antiproliferative activity human Jurkat cells assessed as reduction in cell number incubated for 48 hrs by phase contrast light microscopy. The class given is functional, cell-based. Conditions: dose 10-100 µM.
For data set [13], the system named is A-375. Put plainly: Antiproliferative activity against human A-375 cells assessed as decrease in cell survival incubated for 48 hrs by MTT assay. The class given is functional, cell-based. The note with it: A-375, 48 h.
Data set [14] can be described thus: Metal chelating activity assessed as affinity to Fe3+ at compound:iron concentration ratio of 3:1 and measured at pH 7.4.
The target in data set [15] is Quadruplex DNA. Put plainly: Binding affinity to Cy5-labeled c-Kit2 G4-quadruplex DNA (Cy5-CGGGCGGGCGCTAGGGAGGGT-3') (unknown origin) assessed as equilibrium dissociation constant measured at 25 degC by microscale thermophoresis analysis. In kind it is nucleic-acid assay. For orientation: Microscale thermophoresis detects binding through changes in fluorescence in a small temperature gradient.

The subject of data set [16] is Quadruplex DNA. Put plainly: Binding affinity to Bcl-2 G4-quadruplex DNA (5'-AGGGCGCGGGAGGAAGGGGGCGGGA-3') (unknown origin) assessed as perturbations of imino protons of G1,G17 and G21 within 5' G-tetrad with no significant change in aromatic proton regions upto compound:G4 ratio of 6:1 by ID IH NMR analysis. In kind it is nucleic-acid assay.
For data set [17], the system named is Jurkat. Put plainly: Induction of apoptosis in human Jurkat cells assessed as reduction in Bcl-2 expression at IC50 incubated for 24 to 48 hrs by western blot analysis. In kind it is functional, cell-based. The note with it: time 24-48 hrs.
In data set [18] the target is Quadruplex DNA. As to the kind of experiment: Binding affinity to Cy5-labeled Bcl-2 G4-quadruplex DNA (Cy5-AGGGCGCGGGAGGAAGGGGGCGGGA-3') (unknown origin) assessed as equilibrium dissociation constant measured at 25 degC by microscale thermophoresis analysis. The class given is nucleic-acid assay.
The subject of data set [19] is Quadruplex DNA. As to the kind of experiment: Binding affinity to c-Myc G4-quadruplex DNA (5'-TGAGGGTGGGTAGGGTGGGTAA-3') (unknown origin) assessed as perturbations of imino protons of G8,G12,G17,G21 within middle G-tetrad at compound:G4 ratio of 2:1 by 1D 1H NMR analysis. The class given is nucleic-acid assay.
Data set [20] concerns Quadruplex DNA. Put plainly: Binding affinity to Bcl-2 G4-quadruplex DNA (5'-AGGGCGCGGGAGGAAGGGGGCGGGA-3') (unknown origin) assessed as perturbations of imino protons of G8,G18 and G22 within middle G-tetrad with no significant change in aromatic proton regions upto compound:G4 ratio of 6:1 by ID IH NMR analysis. The class given is nucleic-acid assay.
The subject of data set [21] is Quadruplex DNA. Put plainly: Binding affinity to c-Myc G4-quadruplex DNA (5'-TGAGGGTGGGTAGGGTGGGTAA-3') (unknown origin) assessed as perturbations of imino protons of G7,G11,G16,G20 within 5' G-tetrad at compound:G4 ratio of 2:1 by 1D 1H NMR analysis. The class given is nucleic-acid assay.
Data set [22] has as its system Quadruplex DNA. Put plainly: Binding affinity to c-Myc G4-quadruplex DNA (5'-TGAGGGTGGGTAGGGTGGGTAA-3') (unknown origin) assessed as perturbations of imino protons of G9,G13,G18,G22 within 3' G-tetrad at compound:G4 ratio of 2:1 by 1D 1H NMR analysis. The class given is nucleic-acid assay.
Data set [23] concerns the target Quadruplex DNA. As to the kind of experiment: Binding affinity to human Cy5-labeled Tel23 G4-quadruplex DNA (Cy5-TAGGGTTAGGGTTAGGGTTAGGG-3') assessed as equilibrium dissociation constant measured at 25 degC by microscale thermophoresis analysis. The class given is nucleic-acid assay.
Data set [24] in a line: Metal chelating activity assessed as compound-Fe3+ complex formation at compound:iron concentration ratio of 1:1 and measured in acidic medium.
A short description of data set [25]: Drug uptake in human Jurkat cells assessed as localization of compound in nuclear and perinuclear region at IC50 incubated for 24 hrs by NucSpot Live 488 probe based fluorescence microscopy. In kind it is ADME, cell-based.
The test system of data set [26] is Quadruplex DNA. Put plainly: Binding affinity to c-Myc G4-quadruplex DNA (5'-TGAGGGTGGGTAGGGTGGGTAA-3') (unknown origin) assessed as perturbations of aromatic protons of T23, A24 and A25 with no significant change in aromatic protons of loops at compound:G4 ratio of 2:1 by 1D 1H NMR analysis. The class given is nucleic-acid assay.
Data set [27] addresses Hairpin duplex DNA. Put plainly: Binding affinity to Cy5-labeled Hairpin duplex DNA (Cy5-CGCGAATTCGCGTTTCGCGAATTCGCG-3') (unknown origin) assessed as equilibrium dissociation constant measured at 25 degC by microscale thermophoresis analysis. The class given is nucleic-acid assay.
Data set [28] in a line: Metal chelating activity assessed as compound-Fe3+ complex formation at compound:iron concentration ratio of 2:1 and measured in acidic medium.
A short description of data set [29]: Metal chelating activity assessed as compound-Fe3+ complex formation at compound:iron concentration ratio of 3:1 and measured at pH 6 to 8.
Data set [30] has as its system Jurkat. Put plainly: Induction of apoptosis in human Jurkat cells assessed as induction of phosphotidylserine exposure at IC50 incubated for 48 hrs by fluorescence microscopy. In kind it is functional, cell-based.
For data set [31], the system named is Quadruplex DNA. Put plainly: Binding affinity to Bcl-2 G4-quadruplex DNA (5'-AGGGCGCGGGAGGAAGGGGGCGGGA-3') (unknown origin) assessed as perturbations of imino protons of G7,G19 and G23 within 3' G-tetrad with no significant change in aromatic proton regions upto compound:G4 ratio of 6:1 by ID IH NMR analysis. The class given is nucleic-acid assay.
Data set [32] has as its target Quadruplex DNA. Put plainly: Binding affinity to Cy5-labeled c-Myc G4-quadruplex DNA (Cy5-TGAGGGTGGGTAGGGTGGGTAA-3') (unknown origin) assessed as equilibrium dissociation constant measured at 25 degC by microscale thermophoresis analysis. The class given is nucleic-acid assay.

`N=C(N)NCCCNC(=O)c1ccc2[nH]c(=O)c3cc(=O)c(O)cn3c2c1`: the ΔTm (commonly the change in melting temperature against a reference sample) was 3.2 °C in data set [1]; 2.8 °C in data set [2]; 0.5 °C in data set [3]; 8.6 °C in data set [4]; 8.5 °C in data set [5]; 3.6 °C in data set [6].
As to `O=C(NCCN1CCCC1)c1ccc2[nH]c(=O)c3cc(=O)c(O)cn3c2c1`, the shift in melting temperature (ΔTm) in [1] amounted to 3.6 °C; in [2] it was 2.7 °C; in [3] it was 2.5 °C; in [4], 6.6 °C; in [5], 1.6 °C; in data set [6], 5 °C.
For the molecule `CN(C)CCCNC(=O)c1ccc2[nH]c(=O)c3cc(=O)c(OCc4ccccc4)cn3c2c1`, the thermal shift (ΔTm) was 9.6 °C in [1]; 5.1 °C in [2]; 1.5 °C in data set [3]; 27.6 °C in data set [4]; 15.6 °C in [5]; 12 °C in [6]. Also, in [7], the IC50 – broadly, the point on the concentration scale where inhibition reaches its midpoint – at 48 h is more than 200 µM. Also, the outcome in data set [8] was inactive. For the same molecule, the half-maximal inhibitory concentration (IC50) was more than 200 µM in data set [9], 55 µM in data set [10], more than 200 µM in [11] and more than 200 µM in data set [13]. The Activity entry in [12] is “Dose-dependent-effect”.
As to `O=C(NCc1ccccc1)c1ccc2[nH]c(=O)c3cc(=O)c(OCc4ccccc4)cn3c2c1`, the shift in melting temperature (ΔTm) in data set [1] was determined as 0.1 °C; in data set [2], 1.2 °C; in data set [3] it was 0.3 °C; in [4], 7.5 °C; in [5] it was 3.6 °C; in data set [6], 3.7 °C.
For `Cc1c(O)c(=O)ccn1C`, the pFe3+ in [14] was found to be 20.
For `O=C(O)c1ccc2[nH]c(=O)c3cc(=O)c(OCc4ccccc4)cn3c2c1`, the shift in melting temperature (ΔTm) in data set [1] is -0.1 °C; in [2], 1 °C; in [3], 1 °C; in data set [4], 3.3 °C; in [5], 1.4 °C; in data set [6] it was 0.5 °C.
For `CN(C)CCCNC(=O)c1ccc2[nH]c(=O)c3cc(=O)c(O)cn3c2c1`, the ΔTm in data set [1] worked out at 5.5 °C; in [2], 3.8 °C; in data set [3], 1.8 °C; in [4] it was 10.1 °C; in data set [5] it was 8.7 °C; in [6], 7.4 °C. Further, the Kd (as a rule, the concentration at which binding is half-saturated) in [15] is 1.1 µM; in data set [18] it was 0.5 µM; in data set [23], 3.1 µM; in data set [27], more than 20 µM; in data set [32] it was 0.3 µM. Further, the outcome in data set [16], in data set [17], in data set [19], in data set [20], in data set [21] and in [22] was Active. The result in data set [24], in [8], in data set [26], in data set [28], in data set [29] and in data set [30] was Active. Further, the outcome in data set [31] was Active. Further, in data set [7], the half-inhibitory concentration (IC50) at 48 h is more than 200 µM. Further, the pFe3+ in data set [14] is 16.8. The Drug uptake entry in data set [25] is “Active”. Moreover, the 50% inhibitory concentration (IC50) in data set [9] was more than 200 µM; in data set [10], 30 µM; in data set [11], more than 200 µM; in [13], more than 200 µM. Also, in [12], the Activity entry was “Dose-dependent-effect”.
`COc1cn2c(cc1=O)c(=O)[nH]c1ccc(C(=O)NCCCN(C)C)cc12`: the thermal shift (ΔTm) was found to be 9.3 °C in data set [1]; 4.2 °C in data set [2]; 1.8 °C in data set [3]; 17.3 °C in data set [4]; 13.5 °C in [5]; 5.9 °C in data set [6].
For `O=C(NCCN1CCOCC1)c1ccc2[nH]c(=O)c3cc(=O)c(O)cn3c2c1`, the thermal shift (ΔTm) in data set [1] was 2.2 °C; in data set [2] it was 2.3 °C; in data set [3] it was 2.8 °C; in data set [4], 5.5 °C; in data set [5] it was -0.5 °C; in data set [6], 1.7 °C.
